Results reported in patent US8404752B2, “Method of treating traumatic brain injury” (Oxygen Biotherapeutics, Inc., priority 2008, dated 2013).

Assay: Physical properties and gas carrying capacity of perfluoro-tert-butylcyclohexane
Format: physicochemical

Q: For `FC(F)(F)C(C(F)(F)F)(C(F)(F)F)C1(F)C(F)(F)C(F)(F)C(F)(F)C(F)(F)C1(F)F` [perfluoro-tert-butylcyclohexane], which CO2 carried is on record?
A: The CO2 carried was 196 ml of CO2 per 100 ml of PFC.

Q: What about the lipophilicity of the same compound?
A: Its lipophilicity is “non-lipophilic”.

Q: And the oxygen carried?
A: The oxygen carried was “about 43 mL of oxygen per 100 ml of PFC”.

Q: And the water solubility?
A: Its water solubility is “non-water soluble”.

Q: And the “Vapor Pressure” value (@ 25° C.)?
A: Its value is 3.8 mmHg.

Q: And the “Vapor Pressure” value (@ 37° C.)?
A: The value was 4.4 mmHg.
